Experiments:
healthy females [1] = settings: 2 healthy females; after 4 daily doses versus baseline
Description: Intra-Extra Dimensional Set Shift (IED)
Two artificial dimensions are used in the test: • color-filled shapes • white lines
Simple stimuli are made up of just one of these dimensions, whereas compound stimuli are made up of both, namely white lines overlying colour-filled shapes. The participant starts by seeing two simple colour-filled shapes, and must learn which one is correct by touching it.
Feedback teaches the participant which stimulus is correct, and after six correct responses, the stimuli and/or rules are changed. These shifts are initially intra-dimensional (e.g. colour filled shapes remain the only relevant dimension), then later extra-dimensional (white lines become the only relevant dimension). Participants progress through the test by satisfying a set criterion of learning at each stage (six consecutive correct responses). If at any stage the participant fails to reach this criterion after 50 trials, the test terminates. […]

healthy females [2] = assay: Rapid Visual Information Processing (RVP); type: in vivo, human; settings: 2 healthy females; after 4 daily doses versus baseline
Description: A white box appears in the centre of the computer screen, inside which digits, from 2 to 9, appear in a pseudo-random order, at the rate of 100 digits per minute.
The nine RVP outcome measures cover latency, probabilities and sensitivity.

healthy females [3] = assay: Neuropsychological tests, proof of concept study: conclusions per neuropsychological domain; type: in vivo, human; settings: for Effect regarding executive functioning: 1 subject (trail making B), an indication; for Effect regarding information processing speed: both subjects, multiple indications
Description: (§1) 2 healthy females performed a number of neuropsychological tests at baseline, after taking 40 mg/day of tamoxifen for 4 consecutive days, and after taking 40 mg/day of tamoxifen combined with 0.5 mg/day of sublingual testosterone for 4 consecutive days, to investigate any beneficial effects of sublingual testosterone in women taking a selective estrogen-receptor modulator (SERM).
In this proof of concept study, 2 healthy females performed a number of neuropsychological tests to investigate any beneficial effects of sublingual testosterone in women taking a SERM. The following neuropsychological domains were investigated (tasks are in brackets, see below for more information): • Information processing speed (Big/Little Circle, Choice Reaction Time, Match to Sample Visual Search, Trail making task A, 5-Choice Reaction Time) • Executive functioning (Intra-Extra Dimensional Set Shift, Trail making task B) • Reaction speed (Single Choice Reaction Time) • Working memory (Rapid Visual Information Processing) • Verbal memory (15-words task)
If tamoxifen in these women were to have detrimental effects on their cognitive functioning, a decrease in speed and/or accuracy on either of these tasks was expected.

healthy females [4] = assay: 15 Words Test; type: in vivo, human; settings: after 4 daily doses; for 15 words direct / 15 words recall: number of recalled words; for 15 words direct: total in 5 consecutive trials; for 15 words recognition: number of words
Description: as §1
The 15 Words Test (15WT) is developed to investigate episodic memory problems in patients with brain disorders. It is the Dutch version of the Auditory Verbal Learning Test (REF?). This test consists of 15 words, which have to be learned during five trials. After every trial the respondent is asked to recall as many words as possible. After a distraction period of 20 minutes, the respondent is, again asked to name the words they have learned before.

SMILES	IED task result (healthy females [1])	RVP task result (healthy females [2])	Effect regarding executive functioning (healthy females [3])	Effect regarding information processing speed (healthy females [3])	15 words direct (healthy females [4]; Subject 1)	15 words recall (healthy females [4]; Subject 1)	15 words recognition (healthy females [4]; Subject 1)	15 words direct (healthy females [4]; Subject 2)	15 words recall (healthy females [4]; Subject 2)	15 words recognition (healthy females [4]; Subject 2)	Effect regarding verbal memory (healthy females [3]; 1 subject (15 words recall))
CC/C(=C(\c1ccccc1)c1ccc(OCCN(C)C)cc1)c1ccccc1 [TAMOXIFEN, (Z)-2-[4-(1,2-diphenylbut-1-enyl)phenoxy]-N,N-dimethyl-ethanamine]	no effects	no effects	deteriorating effects	deteriorating effects	51	6	27	43	9	28	–
C[C@]12CC[C@H]3[C@@H](CCC4=CC(=O)CC[C@@]43C)[C@@H]1CC[C@@H]2O [testosterone]	–	–	positive effects	positive effects	–	–	–	–	–	–	positive effect
